Common to all, as to format: cell-based
One assay deals with E. coli strains. Put plainly: MIC against E. coli strains (Table M7). The conditions noted are these: Escherichia coli, ATCC25922, E. coli ATCC 25922. The source says:
(§1) We have collected MIC data for a total of 50 novel macrolides that this platform has produced against over 21 unique strains of B. subtilis, E. coli, S. aureus, S. pneumoniae, and H. influenzae, including several multidrug-resistant strains, with a special focus on macrolide resistant mechanisms (vide supra). Azithromycin was included as a control macrolide. CLSI standard procedures for broth dilution MIC determination were used. […] These genotypes can be constitutive or inducible. The finding that C4-epi (unnatural) isomers of the “azaketolide” macrolide class have enhanced activities relative to C4 natural isomers is very exciting.

In another assay the test system is S. aureus strains. The experiment in a line: MIC against S. aureus strains (Table M7). The note with it: Staphylococcus aureus.
Description: as §1

For another assay, the system named is S. pneumoniae strains. Put plainly: MIC against S. pneumoniae strains (Tables M7, M8). The note with it: for MIC: Streptococcus pneumoniae. The source says: CLSI standard procedures for broth dilution MIC determination were used. […] These genotypes can be constitutive or inducible.
The next assay deals with E. faecalis strains. Put plainly: MIC against E. faecalis strains (Table M8). The note with it: for MIC: Enterococcus faecalis, E. faecalis 29212.
The subject of a further assay is A. baumannii strains. Put plainly: MIC against A. baumannii strains (Table M8). The note with it: Acinetobacter baumannii, BAA747, A. baumannii BAA747-1.
The next assay has as its system K. pneumoniae strains. Put plainly: MIC against K. pneumoniae strains (Table M8). The note with it: for MIC: Klebsiella pneumoniae, K. pneumoniae 10031.
The next assay deals with H. influenzae strains. The experiment in a line: MIC against H. influenzae strains (Table M8). The conditions noted are these: for MIC: Haemophilus influenzae.
Description: as §1

Setting [1] is: ATCC29213, S. aureus ATCC 29213, read-out: MIC S. aureus (ATCC 29213).
Where [2] appears, read: S. aureus 183, read-out: MIC S. aureus (183).
Where [3] appears, read: S. aureus 506, read-out: MIC S. aureus (506).
Setting [4] is: S. aureus 1708, read-out: MIC S. aureus (1708).
[5] abbreviates: USA300, S. aureus USA300, read-out: MIC S. aureus (USA300).
Setting [6] is: S. pneumoniae 160, read-out: MIC S. pneumonae (160).
[7] abbreviates: S. pneumoniae 1509, read-out: MIC S. pneumoniae (1509).
Setting [8] is: S. pneumoniae 1533, read-out: MIC S. pneumoniae (1533).
The mark [9] stands for this setting: S. pneumoniae 1537, read-out: MIC S. pneumoniae (1537).
Setting [10] is: S. pneumoniae 49619, read-out: MIC S. pneumoniae (49619).
Where [11] appears, read: H. influenzae 49247, read-out: MIC H. influenzae (49247).
The mark [12] stands for this setting: H. influenzae 49766, read-out: MIC H. influenzae (49766).

≈ marks a conversion by molar mass, not a printed value. Like-named read-outs stand apart in the source and are kept apart here. Where only a bound is given, the exact number is not on record here.

On to `CC[C@H]1OC(=O)C(C)C(=O)[C@H](C)[C@@H](O[C@@H]2OC(C)CC(N(C)C)C2O)[C@](C)(OC/C=C/c2cnc3ccccc3c2)C[C@@H](C)CN(C)[C@H](C)[C@H]2NC(=O)O[C@@]21C` (some centres unmarked) [FSM-21118], for which the MIC against E. coli strains was 8 µg/mL (≈ 10.2 µM); in the assay on S. aureus strains (setting [1]), 1 µg/mL (≈ 1.28 µM); with S. aureus strains (setting [2]), over 32 µg/mL; with S. aureus strains (setting [3]), over 32 µg/mL; with S. aureus strains (setting [4]), 1 µg/mL (≈ 1.28 µM); with S. aureus strains (setting [5]) it was 2 µg/mL (≈ 2.56 µM). Moreover, the MIC in the assay on S. pneumoniae strains (setting [6]) is at most 0.0625 µg/mL; with S. pneumoniae strains (setting [7]) it was 1 µg/mL (≈ 1.28 µM); in the assay on S. pneumoniae strains (setting [8]), over 32 µg/mL; in the assay on S. pneumoniae strains (setting [9]), 32 µg/mL (≈ 41 µM); in the assay on S. pneumoniae strains (setting [10]) it was 0.125 µg/mL (≈ 0.16 µM); against E. faecalis strains it was 0.5 µg/mL (≈ 0.64 µM). Also, the MIC against A. baumannii strains came to 32 µg/mL (≈ 41 µM); with K. pneumoniae strains it was 2 µg/mL (≈ 2.56 µM); with H. influenzae strains (setting [11]), 2 µg/mL (≈ 2.56 µM); in the assay on H. influenzae strains (setting [12]), 8 µg/mL (≈ 10.2 µM).
As to `CC[C@H]1OC(=O)[C@H](C)C(O)[C@H](C)[C@@H](O[C@@H]2OC(C)CC(N(C)C)C2O)[C@](C)(OC)C[C@@H](C)CN(C)[C@H](C)[C@H]2N(CCCCn3cc(-c4cccc(N)c4)nn3)C(=O)O[C@]12C` (some centres unmarked) [FSM-21335], the MIC against E. coli strains is 32 µg/mL (≈ 37.9 µM); with S. aureus strains (setting [1]) it was over 32 µg/mL; in the assay on S. aureus strains (setting [2]) it was over 32 µg/mL; with S. aureus strains (setting [3]) it was over 32 µg/mL; with S. aureus strains (setting [4]), over 32 µg/mL; in the assay on S. aureus strains (setting [5]) it was 32 µg/mL (≈ 37.9 µM). Also, the MIC is 0.25 µg/mL (≈ 0.296 µM) in the assay with S. pneumoniae strains (setting [6]); over 32 µg/mL in the assay on S. pneumoniae strains (setting [7]); over 32 µg/mL in the assay with S. pneumoniae strains (setting [8]); over 32 µg/mL in the assay on S. pneumoniae strains (setting [9]); 1 µg/mL (≈ 1.18 µM) with S. pneumoniae strains (setting [10]); 16 µg/mL (≈ 19 µM) against E. faecalis strains. In addition, the MIC in the assay on A. baumannii strains was over 32 µg/mL; against K. pneumoniae strains, 4 µg/mL (≈ 4.74 µM); in the assay with H. influenzae strains (setting [11]) it was 4 µg/mL (≈ 4.74 µM); with H. influenzae strains (setting [12]), 32 µg/mL (≈ 37.9 µM).
For `CC[C@H]1OC(=O)[C@H](C)C(=O)[C@H](C)[C@@H](O[C@@H]2OC(C)CC(N(C)C)C2O)[C@](CCO)(OC)C[C@@H](C)CN[C@H](C)[C@H]2N(CCCCn3cc(-c4cccc(N)c4)nn3)C(=O)O[C@]12C` (some centres unmarked) [FSM-21422], the MIC is 32 µg/mL (≈ 37.3 µM) in the assay on E. coli strains; over 32 µg/mL in the assay on S. aureus strains (setting [1]); over 32 µg/mL with S. aureus strains (setting [2]); over 32 µg/mL in the assay with S. aureus strains (setting [3]); over 32 µg/mL in the assay on S. aureus strains (setting [4]); over 32 µg/mL with S. aureus strains (setting [5]). The MIC in the assay with S. pneumoniae strains (setting [6]) was 4 µg/mL (≈ 4.66 µM); in the assay on S. pneumoniae strains (setting [7]) it was over 32 µg/mL; in the assay with S. pneumoniae strains (setting [8]) it was over 32 µg/mL; with S. pneumoniae strains (setting [9]), over 32 µg/mL; in the assay with S. pneumoniae strains (setting [10]), 1 µg/mL (≈ 1.17 µM); with E. faecalis strains, 16 µg/mL (≈ 18.6 µM). Also, the MIC against A. baumannii strains was over 32 µg/mL; in the assay with K. pneumoniae strains, 8 µg/mL (≈ 9.32 µM); in the assay with H. influenzae strains (setting [11]), 8 µg/mL (≈ 9.32 µM); in the assay with H. influenzae strains (setting [12]) it was 16 µg/mL (≈ 18.6 µM).
In the case of `C=CC[C@@]1(OC)C[C@@H](C)CN[C@H](C)[C@H]2N(CCCCn3cc(-c4ccccn4)nn3)C(=O)O[C@]2(C)[C@@H](CC)OC(=O)[C@H](C)C(=O)[C@H](C)[C@H]1O[C@@H]1OC(C)CC(N(C)C)C1O` (some centres unmarked) [FSM-21423], the MIC with E. coli strains was 32 µg/mL (≈ 38.1 µM); in the assay with S. aureus strains (setting [1]), 16 µg/mL (≈ 19 µM); in the assay on S. aureus strains (setting [2]) it was over 32 µg/mL; in the assay on S. aureus strains (setting [3]), over 32 µg/mL; in the assay with S. aureus strains (setting [4]), 32 µg/mL (≈ 38.1 µM); in the assay with S. aureus strains (setting [5]), 16 µg/mL (≈ 19 µM). Further, the MIC was over 32 µg/mL with S. pneumoniae strains (setting [7]); over 32 µg/mL in the assay with S. pneumoniae strains (setting [8]); over 32 µg/mL in the assay with S. pneumoniae strains (setting [9]); over 32 µg/mL against A. baumannii strains; 16 µg/mL (≈ 19 µM) with H. influenzae strains (setting [12]). Further, the “MIC S. pneumonae (160)” value in the assay with S. pneumoniae strains (S. pneumoniae 160) is 0.25 µg/mL (≈ 0.298 µM). Besides, the “MIC S. pneumoniae (49619)” value against S. pneumoniae strains (S. pneumoniae 49619) turned out to be 1 µg/mL (≈ 1.19 µM). Further, in the assay on E. faecalis strains, the “MIC E. faecalis (29212)” value was 4 µg/mL (≈ 4.76 µM). Also, the “MIC K. pneumoniae (10031)” value against K. pneumoniae strains is 8 µg/mL (≈ 9.52 µM). In addition, in the assay on H. influenzae strains (H. influenzae 49247), the “MIC H. influenzae (49247)” value came to 2 µg/mL (≈ 2.38 µM).
With `CC[C@H]1OC(=O)[C@H](Cc2cncs2)C(=O)[C@H](C)[C@@H](O[C@@H]2OC(C)CC(N(C)C)C2O)[C@](C)(OC)C[C@@H](C)CN[C@H](C)[C@H]2N(CCCCn3cc(-c4cccc(N)c4)nn3)C(=O)O[C@]12C` (some centres unmarked) [FSM-56216], the MIC is 32 µg/mL (≈ 35.1 µM) with E. coli strains; 32 µg/mL (≈ 35.1 µM) in the assay on S. aureus strains (setting [1]); over 32 µg/mL in the assay on S. aureus strains (setting [2]); over 32 µg/mL in the assay with S. aureus strains (setting [3]); 16 µg/mL (≈ 17.6 µM) in the assay with S. aureus strains (setting [4]); 32 µg/mL (≈ 35.1 µM) in the assay on S. aureus strains (setting [5]). Moreover, the MIC in the assay with S. pneumoniae strains (setting [6]) is 2 µg/mL (≈ 2.19 µM); in the assay with S. pneumoniae strains (setting [7]) it was 32 µg/mL (≈ 35.1 µM); in the assay with S. pneumoniae strains (setting [8]) it was over 32 µg/mL; in the assay with S. pneumoniae strains (setting [9]), over 32 µg/mL; in the assay with S. pneumoniae strains (setting [10]), 1 µg/mL (≈ 1.1 µM); with E. faecalis strains, 8 µg/mL (≈ 8.78 µM). Moreover, the MIC in the assay on A. baumannii strains is over 32 µg/mL; against K. pneumoniae strains, 8 µg/mL (≈ 8.78 µM); with H. influenzae strains (setting [11]) it was 4 µg/mL (≈ 4.39 µM); in the assay with H. influenzae strains (setting [12]), 16 µg/mL (≈ 17.6 µM).

The record behind these values is US9982005B2, “Macrolides and methods of their preparation and use” (President and Fellows of Harvard College, priority 2013, dated 2018).
